Assay results published in publication PMC12040169 (PLOS Biology, 2025).

Test: in vitro
Conditions: human, hela cells, % viability
`O=C(O)CCNc1ccc(Br)cc1C(=O)O` [CBK087259] gave a viability at 28.5 h, 10 µM of 96.9%.
With `Nc1nc2ccccc2n1CCOc1ccc(Cl)cc1` [CBK087352] the viability at 28.5 h, 10 µM was 85.9%.
`COc1cccc(N2CCC(=O)N2)c1` [CBK087441] showed a viability at 28.5 h, 10 µM of 87%.
In the case of `O=C1CC(c2ccc3c(c2)OCO3)c2ccc3ccccc3c2N1` (centres unmarked) [CBK087469], the viability at 28.5 h, 10 µM is reported as 95.8%.
With `Cc1c(Br)c(C(F)(F)F)nn1CC(=O)Nc1cc(C(F)(F)F)ccc1Cl` [CBK087518] the viability at 28.5 h, 10 µM was 92.5%.
`Cc1ccc(S(=O)(=O)Nc2ccccc2-c2nc3ccccc3c(=O)o2)cc1` [CBK087613] gave a viability at 28.5 h, 10 µM of 94.5%.
Work on `O=C(O)CCC(NC(=O)c1ccc(I)cc1)C(=O)O` (centres unmarked) [CBK087614] yielded a viability at 28.5 h, 10 µM of 95.8%.
`Cc1c(C)n(Cc2ccccc2)c2ccc(C(=O)OCCCN(C)C)cc12` [CBK087693] gave a viability at 28.5 h, 10 µM of 91.7%.
With `CCC(=O)NCCc1c[nH]c2ccc([N+](=O)[O-])cc12` [CBK088059] the viability at 28.5 h, 10 µM was 110%.
`Cc1c(NC(=O)c2ccccc2Cl)c(=O)n(-c2ccccc2)n1C` [CBK088068] gave a viability at 28.5 h, 10 µM of 105%.
Molecule `O=c1[nH]c2ccccc2nc1-c1cc(Br)ccc1NCc1ccccc1` [CBK088071] has a viability at 28.5 h, 10 µM of 106%.
Work on `CC(C)Nc1nccnc1-c1ccc(CO)cc1` [CBK088519] yielded a viability at 28.5 h, 10 µM of 90.1%.
For `c1ccc(-c2nccnc2NCC2CC2)cc1` [CBK088539], the viability at 28.5 h, 10 µM was 88.4%.
With `COCCNc1nccnc1-c1ccccc1` [CBK088555] the viability at 28.5 h, 10 µM was 105%.
`COCCNc1nccnc1-c1cnc(OC)nc1OC` [CBK088558] showed a viability at 28.5 h, 10 µM of 109%.
Molecule `CCNc1nccnc1-c1cnc(OC)nc1OC` [CBK088587] has a viability at 28.5 h, 10 µM of 93.9%.
Molecule `CCNc1nccnc1-c1cccc(O)c1` [CBK088593] has a viability at 28.5 h, 10 µM of 103%.
Molecule `COc1ccccc1-c1nccnc1NCc1cccs1` [CBK088682] has a viability at 28.5 h, 10 µM of 88%.
`OCc1ccc(-c2nccnc2NCc2cccs2)cc1` [CBK088689] gave a viability at 28.5 h, 10 µM of 99.1%.
With `C[C@H](Nc1nccnc1-c1ccsc1)c1ccccc1` [CBK088716] the viability at 28.5 h, 10 µM was 94.9%.
With `CC(C)CNc1nccnc1-c1ccc2c(c1)OCO2` [CBK088730] the viability at 28.5 h, 10 µM was 98.4%.
For `CC(C)CNc1nccnc1-c1ccc(Cl)cc1` [CBK088738], the viability at 28.5 h, 10 µM was 91.3%.
`Nc1nn2c(c1Cc1c(Cl)cccc1Cl)OCC2` [CBK088759] showed a viability at 28.5 h, 10 µM of 91.7%.
Work on `CN1CCN(c2nccnc2-c2ccccc2)CC1` [CBK088825] yielded a viability at 28.5 h, 10 µM of 88.7%.
`CCCNc1nccnc1-c1cccc(Cl)c1Cl` [CBK088892] gave a viability at 28.5 h, 10 µM of 93.8%.
For `CCCNc1nccnc1-c1cccc(CO)c1` [CBK088897], the viability at 28.5 h, 10 µM was 91.5%.
Work on `Nc1c(Cc2c(Cl)cccc2Cl)c(=O)n2n1CCC2` [CBK088948] yielded a viability at 28.5 h, 10 µM of 98.9%.
Molecule `Fc1ccc(-c2nccnc2NCc2ccncc2)cc1` [CBK088964] has a viability at 28.5 h, 10 µM of 98.8%.
`COc1ccccc1-c1nccnc1NCCCO` [CBK088971] showed a viability at 28.5 h, 10 µM of 98.8%.
With `OCCCNc1nccnc1-c1cccc(F)c1` [CBK088976] the viability at 28.5 h, 10 µM was 98.5%.
For `CC(C)[C@@H](CO)Nc1nccnc1-c1cccs1` [CBK089024], the viability at 28.5 h, 10 µM was 93.7%.
In the case of `COc1ccccc1-c1nccnc1N[C@@H](CO)C(C)C` [CBK089034], the viability at 28.5 h, 10 µM is reported as 93.6%.
`OCC1CCCN1c1nccnc1-c1ccoc1` (centres unmarked) [CBK089057] showed a viability at 28.5 h, 10 µM of 105%.
Work on `OCC1CCCN1c1nccnc1-c1cccs1` (centres unmarked) [CBK089060] yielded a viability at 28.5 h, 10 µM of 106%.
In the case of `CC(O)CNc1nccnc1-c1ccccc1` (centres unmarked) [CBK089257], the viability at 28.5 h, 10 µM is reported as 95.7%.
Molecule `c1cncc(CNc2nccnc2-c2ccsc2)c1` [CBK089314] has a viability at 28.5 h, 10 µM of 113%.
Work on `Nc1c(Cc2c(Cl)cccc2Cl)c(=O)n2n1CCCC2` [CBK089337] yielded a viability at 28.5 h, 10 µM of 95%.
In the case of `CCC1CCCCN1C(=O)c1cc(C)oc1C` (centres unmarked) [CBK089358], the viability at 28.5 h, 10 µM is reported as 105%.
`O=C(N1CCOCC1)C12CC3CC(CC(C3)C1)C2` [CBK089368] showed a viability at 28.5 h, 10 µM of 90.3%.
With `CC(C)Nc1nccnc1Sc1cccs1` [CBK089490] the viability at 28.5 h, 10 µM was 123%.
`CC(C)Nc1cc(Sc2ccc(Br)cc2)ncn1` [CBK089502] showed a viability at 28.5 h, 10 µM of 103%.
Molecule `Nc1ccc(Sc2nccnc2N2CCCC2)cc1` [CBK089520] has a viability at 28.5 h, 10 µM of 94.4%.
`COc1cccc(Sc2cc(N3CCCC3)ncn2)c1` [CBK089533] gave a viability at 28.5 h, 10 µM of 110%.
With `c1ccc2c(Sc3cc(N4CCCC4)ncn3)cccc2c1` [CBK089538] the viability at 28.5 h, 10 µM was 94.2%.
Molecule `Fc1ccc(Sc2nc3ccccc3nc2N2CCCC2)cc1` [CBK089543] has a viability at 28.5 h, 10 µM of 101%.
For `CC(C)(C)OCc1[nH]nc(O)c1Cc1c(Cl)cccc1Cl` [CBK089569], the viability at 28.5 h, 10 µM was 106%.
In the case of `CCCNCC(=O)N1CN(C(=O)c2ccc(C)cc2)C(C)(C)C1` [CBK089572C], the viability at 28.5 h, 10 µM is reported as 111%.
With `Cc1ccc(C(=O)N2CN(C(=O)CNC3CC3)CC2(C)C)cc1` [CBK089574C] the viability at 28.5 h, 10 µM was 98.4%.
In the case of `Nc1cccc(Sc2ccc(C(F)(F)F)cn2)c1` [CBK089606], the viability at 28.5 h, 10 µM is reported as 107%.
For `FC(F)(F)c1cccc(Sc2ccc(Cl)c(Cl)c2)n1` [CBK089608], the viability at 28.5 h, 10 µM was 91.2%.
With `CCNc1cc2ccccc2c(-c2ccc(OC)c(C)c2)n1` [CBK089644] the viability at 28.5 h, 10 µM was 86%.
Molecule `CCc1nccnc1OC` [CBK089673] has a viability at 28.5 h, 10 µM of 101%.
Molecule `OCCNc1nccnc1Cl` [CBK089793] has a viability at 28.5 h, 10 µM of 114%.
For `CC(C)(C)S(=O)(=O)Cc1noc(-c2ccc(Cl)nc2)n1` [CBK089825], the viability at 28.5 h, 10 µM was 98.9%.
Molecule `COC(=O)C(N)c1c[nH]c2ccccc12` (centres unmarked) [CBK089840] has a viability at 28.5 h, 10 µM of 104%.
For `COc1cc(-n2cnc3cc(-c4ccc(Cl)cc4)sc3c2=O)ccc1OCCN1CCCC1` [CBK089844C], the viability at 28.5 h, 10 µM was 40.7%.
With `CNC(=O)c1cc2ncc(C(F)(F)F)cc2s1` [CBK089882] the viability at 28.5 h, 10 µM was 93.1%.
With `NC(=O)c1sc2cc(C(F)(F)F)cnc2c1-c1cccs1` [CBK089891] the viability at 28.5 h, 10 µM was 88.2%.
Work on `Cn1nc2c(c1O)CCCC2` [CBK089897] yielded a viability at 28.5 h, 10 µM of 102%.
`CCOc1cc(/C=N/O)ccc1OC(=O)c1cccc([N+](=O)[O-])c1` [CBK090036] gave a viability at 28.5 h, 10 µM of 107%.
Work on `Cc1ccc(C(C)(C)C)c(OC(=O)c2cnc(C)cn2)c1` [CBK090261] yielded a viability at 28.5 h, 10 µM of 96.5%.
`N#CCc1ccc(OC(=O)c2cccnc2)cc1` [CBK090304] gave a viability at 28.5 h, 10 µM of 105%.
`Nc1nccnc1C(=O)Oc1ccccc1` [CBK090311] gave a viability at 28.5 h, 10 µM of 88.1%.
`O=C(Oc1ccccc1)c1cc(Cl)cnc1Cl` [CBK090320] showed a viability at 28.5 h, 10 µM of 101%.
With `Cc1ccc(OC(=O)c2cc(Cl)cnc2Cl)cc1` [CBK090321] the viability at 28.5 h, 10 µM was 84.5%.
`O=C(Oc1ccccc1)c1ccnc(Cl)c1` [CBK090322] gave a viability at 28.5 h, 10 µM of 87.2%.
With `Nc1ncc(-c2ccc(C(F)(F)F)cc2)nc1-c1ccc(C(=O)N2CCOCC2)cc1` [CBK090524] the viability at 28.5 h, 10 µM was 103%.
`COc1cc(Nc2cc(-c3ccccc3N(C)C)ncn2)cc(OC)c1OC` [CBK090702] gave a viability at 28.5 h, 10 µM of 64.2%.
For `COc1cc(Nc2cc(-c3ccco3)ncn2)cc(OC)c1OC` [CBK090706], the viability at 28.5 h, 10 µM was 90.3%.
`COc1cc(Nc2cc(-c3ccc(NC(C)=O)cc3)ncn2)cc(OC)c1OC` [CBK090710] showed a viability at 28.5 h, 10 µM of 103%.

Same assay, conditions: human, hela cells, % viability, bulk resorufin, single well
Molecule `CNC(=O)c1nn(Cc2ccc(Cl)cc2)c2ccccc12` [CBK088451] has a viability at 28.5 h, 10 µM of 87.6%.
For `O=C(O)c1nn(Cc2ccc(Cl)c(Cl)c2)c2ccccc12` [CBK088455], the viability at 28.5 h, 10 µM was 91.2%.
Work on `CCOC(=O)N1CCC2(CC1)Oc1ccc(Br)cc1O2` [CBK089365] yielded a viability at 28.5 h, 10 µM of 80.9%.
`CC(=O)Nc1ccc(OC(=O)N2CCCCC2)cc1` [CBK090124] showed a viability at 28.5 h, 10 µM of 99.1%.
